# Legend:
# MCA occlusion in rats = assay: Functional recovery following MCA occlusion in rats, therapeutic window / time course (Examples 4, 5); type: in vivo, Sprague Dawley Rats
# Protocol: Fifty male Sprague Dawley Rats, each weighing 300-400 g, are operated under anesthesia to create MCA occlusion as described in Example 1, and are divided into 5 groups of 10 animals each. […] One group is a control group with administration of the vehicle only at 6 hours. The animals are evaluated as described in Example 2. The experiment of Example 4 is also carried out using iroxanadine as the therapeutic agent.
# [1] = tested on: rat cortical neurons (mixed cortical cultures); assay: Oxygen/glucose deprivation (OGD) of rat cortical neurons, cell death by LDH release; type: cell-based, Wistar rat; details: all concentrations (0.1-50 μM) except 0.2 μM; added one hour after onset of OGD
# Protocol: Mixed cortical cultures were prepared from E18 Wistar rat embryos (National Animal Center, Kuopio, Finland). The cortices were dissected and the tissue cut into small pieces. The cells were separated by fifteen minute incubation with DNase and papain. The cells were collected by centrifugation (1500 rpm, 5 min). The tissue was triturated with a pipette and the cells were placed on poly-L-lysine coated 48-well plates, 300,000 cells/cm2, in MEM (2 g/L glucose) supplemented with 2 mM glutamine, 0.1 μg/mL gentamicin, 10% heat-inactivated fetal bovine serum (FSB-HI) and 10% heat-inactivated horse serum (HS-HI). After 3-4 hours, the medium was changed to MEM (2 g/L glucose) and supplemented with 2 mM glutamine, 0.1 μg/mL gentamicin, 5% HS-HI. After three days in vitro, cells were transferred into medium containing MEM (2 g/L glucose) supplemented with glutamine, gentamicin and 5% each of FSB-HI and HS-HI sera. On day 6 in vitro, unwanted cell division was inhibited by adding cytosine arabinoside (10 μM final concentration) for 24 hours. […]
# After 24 hours, possible cell debris was removed by centrifugation (13,000 rpm, 3 min.). […] The absorbance at 340 nm was measured immediately using a 3 min. kinetic measurement protocol in Multiskan ELISA reader (Labsystems, Finland). The change in absorbance/min was determined, which is directly proportional to the released LDH (=cell death).
# [2] = Cerebrospinal fluid (CSF) levels after oral administration in humans; type: in vivo, human; details: 3 and 6 hours after oral administration, increasing doses
compound,measurement,setting,value
"[O-][n+]1cccc(/C(Cl)=N/OC[C@H](O)CN2CCCCC2)c1 [arimoclomol, N-[2-hydroxy-3-(1-piperidinyl)propoxy]-pyridine-1-oxide-3-carboximidoyl chloride]","Body Swing Test, recovery compared to vehicle group","MCA occlusion in rats; 200 mg/kg/d p.o., all start times",superior to the vehicle group
same,"Hindlimb Placing Test, time course of recovery compared to vehicle group","MCA occlusion in rats; 200 mg/kg/d p.o., first dose 6, 12, 24 or 48 h after occlusion",superior to the vehicle group
same,"Forelimb Placing Test, recovery compared to vehicle group","MCA occlusion in rats; 200 mg/kg/d p.o., first dose 6, 12, 24 or 48 h after occlusion, all groups",superior to the vehicle group
same,"Hindlimb Placing Test, difference among treated groups","MCA occlusion in rats; first administration 6, 12, 24, or 48 hours after occlusion",no statistical difference
same,"Body Swing Test, performance after 21 days",MCA occlusion in rats; first administration 6 hours after occlusion,continued to show improved performance
same,"Forelimb Placing Test, recovery compared to other start times",MCA occlusion in rats; first administration 6 hours after stroke,superior
same,"Forelimb Placing Test, recovery",MCA occlusion in rats; first administration 48 hours after occlusion,significant and sustained
same,"Body Swing Test, recovery of 48 h group compared to 6 h group",MCA occlusion in rats; time points up to and including 21 days after occlusion,indistinguishable
same,cytoprotection against OGD as measured by LDH release,[1],cytoprotective
same,penetration of the human blood-brain barrier (CSF levels),[2],penetrates the human blood-brain barrier
